Test system: CD8+ T cells of healthy HLA-A*24 donors
Test: In vitro immunogenicity for MHC class I presented peptides (aAPC priming, A*2402 multimer staining)
Type: cell-based, human
Conditions: in vitro priming of CD8+ T cells with peptide-loaded HLA-A*2402/anti-CD28 beads, three stimulation cycles
Procedure: CD8 T cells were either directly enriched from the leukapheresis product or PBMCs (peripheral blood mononuclear cells) were isolated first by using standard gradient separation medium (PAA, Cölbe, Germany). Isolated CD8 lymphocytes or PBMCs were incubated until use in T-cell medium (TCM) consisting of RPMI-Glutamax (Invitrogen, Karlsruhe, Germany) supplemented with 10% heat inactivated human AB serum (PAN-Biotech, Aidenbach, Germany), 100 U/ml Penicillin/100 μg/ml Streptomycin (Cambrex, Cologne, Germany), 1 mM sodium pyruvate (CC Pro, Oberdorla, Germany), 20 μg/ml Gentamycin (Cambrex). […] Isolation of CD8+ lymphocytes was performed by positive selection using CD8 MicroBeads (Miltenyi Biotec, Bergisch-Gladbach, Germany).
800.000 beads/200 μl were coated in 96-well plates in the presence of 600 ng biotin anti-CD28 plus 200 ng relevant biotin-pMHC (high density beads). Stimulations were initiated in 96-well plates by co-incubating 1×10^6 CD8+ T cells with 2×10^5 washed coated beads in 200 μl TCM supplemented with 5 ng/ml IL-12 (PromoCell) for 3-4 days at 37° C. […] Peptide specific cells were calculated as percentage of total CD8+ cells. […] In vitro priming of specific multimer+ CD8+ lymphocytes was detected by appropriate gating and by comparing to negative control stimulations.

“1 (FYISPVNKL; listed as Homo sapiens) [compound 1]” was tested, and the “Positive donors/donors tested [%]” value (among evaluable donors) was 100% and the “Positive wells/wells tested [%]” value (among evaluable wells) was 50%.

— patent US20110229505A1, “Methods for the diagnosis and treatment of cancer based on AVL9” (IMMATICS BIOTECHNOLOGIES GMBH, priority 2010, published 2011)
